Measured values: the NIST ThermoML archive (doi:10.1021/acs.jced.7b00452)
± gives the expanded uncertainty stated by the source.

Assays:
[1] = mn = molality of the nth substance listed, in mol/kg; conditions: 101.3 kPa, Liquid; for speed of sound: Single path-length method; for mass density: Vibrating tube method
[2] = 318.15 K; 101.3 kPa; Liquid; Single path-length method

| speed of sound ([1]; 298.15 K, m1 = 0.025) | speed of sound ([1]; 298.15 K, m1 = 0.05) | mass density ([1]; 298.15 K, m1 = 0.025) | mass density ([1]; 298.15 K, m1 = 0.05) | speed of sound ([1]; 308.15 K, m1 = 0.025) | speed of sound ([1]; 308.15 K, m1 = 0.05) | mass density ([1]; 308.15 K, m1 = 0.025) | mass density ([1]; 308.15 K, m1 = 0.05) | speed of sound ([1]; 318.15 K, m1 = 0.025) | speed of sound ([1]; 318.15 K, m1 = 0.05) | mass density ([1]; 318.15 K, m1 = 0.025) | mass density ([1]; 318.15 K, m1 = 0.05) | speed of sound [2] | SMILES | speed of sound ([1]; 318.15 K, m2 = 0) |
| --- | --- | --- | --- | --- | --- | --- | --- | --- | --- | --- | --- | --- | --- | --- |
| 1498.8 ± 1 m/s | 1500 ± 1 m/s | 997.765 ± 0.1 kg/m3 | 998.484 ± 0.1 kg/m3 | 1521.6 ± 1 m/s | 1522.7 ± 1 m/s | 994.741 ± 0.1 kg/m3 | 995.466 ± 0.1 kg/m3 | 1538 ± 1 m/s | 1539.2 ± 1 m/s | 990.91 ± 0.11 kg/m3 | 991.637 ± 0.11 kg/m3 | – | C[C@H](N)C(=O)O [(S)-2-aminopropanoic acid] + O | – |
| 1498.9 ± 1 m/s | 1501.7 ± 1 m/s | 997.706 ± 0.1 kg/m3 | 998.248 ± 0.1 kg/m3 | 1521.7 ± 1 m/s | 1524.2 ± 1 m/s | 994.661 ± 0.1 kg/m3 | 995 ± 0.1 kg/m3 | 1537.7 ± 1 m/s | 1540.2 ± 1 m/s | 990.798 ± 0.1 kg/m3 | 991.103 ± 0.1 kg/m3 | – | CC(C)[C@H](N)C(=O)O [L-valine] + O | – |
| – | – | – | – | – | – | – | – | – | – | – | – | 1536.7 ± 1 m/s | O [water] | – |
| – | – | – | – | – | – | – | – | – | – | – | – | – | O [water] + CCN(CC)CCNC(=O)c1ccc(N)cc1.Cl | 1536.7 ± 1 m/s |
